For three molecules, % of control results are on record in ChEMBL document CHEMBL5465560, “Selectivity Literature for EUbOPEN Chemogenomic Library” (2024).

Conditions in all cases: at 10 µM
The target of test [1] is T1, Dual specificity mitogen-activated protein kinase kinase 5 (Homo sapiens) (UniProt Q13163).
T1 sequence (whole entry): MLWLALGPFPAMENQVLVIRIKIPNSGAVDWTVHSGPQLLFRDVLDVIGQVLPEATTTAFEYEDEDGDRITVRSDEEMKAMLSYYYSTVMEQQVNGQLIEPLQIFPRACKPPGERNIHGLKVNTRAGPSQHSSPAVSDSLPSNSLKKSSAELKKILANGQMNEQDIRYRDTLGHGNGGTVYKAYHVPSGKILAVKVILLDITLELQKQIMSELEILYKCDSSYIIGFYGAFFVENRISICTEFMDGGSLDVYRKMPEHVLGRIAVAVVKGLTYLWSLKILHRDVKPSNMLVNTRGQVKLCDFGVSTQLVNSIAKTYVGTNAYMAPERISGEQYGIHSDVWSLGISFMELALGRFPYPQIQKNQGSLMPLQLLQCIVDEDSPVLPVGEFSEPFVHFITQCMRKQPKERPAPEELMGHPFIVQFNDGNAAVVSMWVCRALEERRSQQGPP

Test [2] concerns the target T2, Mitogen-activated protein kinase kinase kinase 13 (Homo sapiens) (UniProt O43283).
T2 sequence (whole entry): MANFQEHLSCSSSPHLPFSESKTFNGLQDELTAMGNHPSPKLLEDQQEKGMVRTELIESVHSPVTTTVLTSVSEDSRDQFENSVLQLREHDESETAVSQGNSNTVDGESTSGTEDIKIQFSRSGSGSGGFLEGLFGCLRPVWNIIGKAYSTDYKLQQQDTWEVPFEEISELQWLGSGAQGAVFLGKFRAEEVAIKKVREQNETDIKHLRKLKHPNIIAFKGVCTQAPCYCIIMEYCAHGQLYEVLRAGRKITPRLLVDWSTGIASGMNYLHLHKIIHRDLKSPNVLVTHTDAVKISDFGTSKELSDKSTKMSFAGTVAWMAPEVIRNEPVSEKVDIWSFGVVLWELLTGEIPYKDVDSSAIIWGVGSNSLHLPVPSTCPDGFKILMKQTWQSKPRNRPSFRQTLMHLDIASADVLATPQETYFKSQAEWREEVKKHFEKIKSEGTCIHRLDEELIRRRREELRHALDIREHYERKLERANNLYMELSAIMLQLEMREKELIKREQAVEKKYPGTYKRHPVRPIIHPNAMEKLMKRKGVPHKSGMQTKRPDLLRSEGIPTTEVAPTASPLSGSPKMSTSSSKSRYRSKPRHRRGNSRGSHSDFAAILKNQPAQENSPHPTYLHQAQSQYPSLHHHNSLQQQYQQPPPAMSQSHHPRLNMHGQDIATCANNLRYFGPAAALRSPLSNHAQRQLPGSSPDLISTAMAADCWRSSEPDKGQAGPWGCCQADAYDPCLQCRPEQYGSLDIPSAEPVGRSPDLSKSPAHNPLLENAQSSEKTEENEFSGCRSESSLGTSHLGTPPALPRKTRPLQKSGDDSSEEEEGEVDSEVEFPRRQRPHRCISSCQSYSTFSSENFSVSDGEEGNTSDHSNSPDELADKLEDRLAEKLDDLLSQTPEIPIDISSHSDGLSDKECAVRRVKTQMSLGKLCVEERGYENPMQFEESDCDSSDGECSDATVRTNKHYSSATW
As to the kind of experiment: Selectivity interaction (KinomeScan (DiscoverX)) EUB0000092b MAP3K13.

The target of test [3] is T3, Mitogen-activated protein kinase kinase kinase 6 (Homo sapiens) (UniProt O95382).
T3 sequence (whole entry): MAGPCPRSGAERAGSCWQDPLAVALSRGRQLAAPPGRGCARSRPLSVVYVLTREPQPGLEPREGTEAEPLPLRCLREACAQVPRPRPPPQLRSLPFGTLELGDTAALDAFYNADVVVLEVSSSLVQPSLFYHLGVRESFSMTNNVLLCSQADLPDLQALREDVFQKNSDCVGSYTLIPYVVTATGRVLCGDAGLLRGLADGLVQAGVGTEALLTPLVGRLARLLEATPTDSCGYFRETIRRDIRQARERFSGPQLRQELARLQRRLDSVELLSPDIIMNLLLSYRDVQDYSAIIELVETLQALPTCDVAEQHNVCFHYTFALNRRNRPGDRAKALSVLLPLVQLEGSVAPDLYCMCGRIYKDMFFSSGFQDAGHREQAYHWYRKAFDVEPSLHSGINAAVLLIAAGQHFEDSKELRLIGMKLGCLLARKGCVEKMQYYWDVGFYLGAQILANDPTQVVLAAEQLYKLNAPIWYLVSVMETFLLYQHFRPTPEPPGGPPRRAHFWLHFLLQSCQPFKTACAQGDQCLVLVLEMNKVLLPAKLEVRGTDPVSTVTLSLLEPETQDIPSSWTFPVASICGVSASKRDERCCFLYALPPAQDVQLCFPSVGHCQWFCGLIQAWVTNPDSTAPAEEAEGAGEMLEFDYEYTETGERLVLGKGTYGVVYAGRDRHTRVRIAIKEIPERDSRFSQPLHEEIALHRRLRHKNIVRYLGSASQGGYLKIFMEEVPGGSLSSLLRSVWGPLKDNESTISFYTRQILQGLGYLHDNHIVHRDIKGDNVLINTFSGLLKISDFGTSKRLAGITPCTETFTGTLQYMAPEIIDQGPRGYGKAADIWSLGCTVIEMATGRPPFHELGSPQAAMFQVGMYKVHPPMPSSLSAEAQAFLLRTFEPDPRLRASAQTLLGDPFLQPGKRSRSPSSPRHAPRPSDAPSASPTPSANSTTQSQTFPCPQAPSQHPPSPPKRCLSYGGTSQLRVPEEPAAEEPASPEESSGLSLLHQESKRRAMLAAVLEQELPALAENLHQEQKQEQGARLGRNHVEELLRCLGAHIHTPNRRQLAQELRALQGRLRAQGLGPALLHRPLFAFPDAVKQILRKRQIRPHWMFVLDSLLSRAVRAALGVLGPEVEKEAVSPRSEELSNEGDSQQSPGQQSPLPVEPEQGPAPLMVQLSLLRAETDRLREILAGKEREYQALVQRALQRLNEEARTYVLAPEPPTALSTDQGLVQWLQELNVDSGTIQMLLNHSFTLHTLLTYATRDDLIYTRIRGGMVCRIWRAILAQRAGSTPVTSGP
Nature of the test: Selectivity interaction (KinomeScan (DiscoverX)) EUB0000607a MAP3K6.

The target in test [4] is Macrophage colony-stimulating factor 1 receptor (Homo sapiens) (UniProt P07333). As to the kind of experiment: Selectivity interaction (KinomeScan (DiscoverX)) EUB0000607a CSF1R.
Chain of Macrophage colony-stimulating factor 1 receptor (Homo sapiens) (P07333 whole entry): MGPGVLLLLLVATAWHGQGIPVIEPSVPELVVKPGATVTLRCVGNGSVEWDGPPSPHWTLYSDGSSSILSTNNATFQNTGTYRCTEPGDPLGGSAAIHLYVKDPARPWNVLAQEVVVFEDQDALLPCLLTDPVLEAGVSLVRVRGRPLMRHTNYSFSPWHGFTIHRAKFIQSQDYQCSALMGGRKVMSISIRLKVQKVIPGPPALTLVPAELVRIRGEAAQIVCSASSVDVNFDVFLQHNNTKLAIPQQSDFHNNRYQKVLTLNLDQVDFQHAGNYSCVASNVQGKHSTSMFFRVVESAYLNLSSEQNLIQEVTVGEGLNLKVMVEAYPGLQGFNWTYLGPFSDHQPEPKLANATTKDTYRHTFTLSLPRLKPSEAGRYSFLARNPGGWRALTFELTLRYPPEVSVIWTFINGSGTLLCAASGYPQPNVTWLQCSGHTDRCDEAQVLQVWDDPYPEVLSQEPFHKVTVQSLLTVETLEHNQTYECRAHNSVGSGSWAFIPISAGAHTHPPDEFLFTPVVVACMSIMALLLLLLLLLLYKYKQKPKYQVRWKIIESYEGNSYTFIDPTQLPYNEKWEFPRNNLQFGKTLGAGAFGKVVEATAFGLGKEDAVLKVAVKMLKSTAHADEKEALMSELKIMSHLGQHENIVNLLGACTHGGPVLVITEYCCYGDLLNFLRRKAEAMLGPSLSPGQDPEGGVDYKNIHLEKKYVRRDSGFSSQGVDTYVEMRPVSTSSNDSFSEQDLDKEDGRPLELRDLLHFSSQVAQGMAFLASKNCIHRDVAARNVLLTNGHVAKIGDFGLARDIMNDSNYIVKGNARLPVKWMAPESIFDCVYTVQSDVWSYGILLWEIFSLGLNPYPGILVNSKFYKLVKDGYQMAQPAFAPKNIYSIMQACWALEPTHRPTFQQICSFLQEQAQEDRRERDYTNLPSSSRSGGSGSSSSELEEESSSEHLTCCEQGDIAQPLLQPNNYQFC

For the molecule `Cc1cc([C@@H](C)Nc2ccccc2C(=O)O)c2nc(N3CCOCC3)cc(=O)n2c1` [AZD-6482], the % of control in test [1] amounted to 100%.

With `CCC(=O)N1CCN(c2ccc(-n3c(=O)ccc4cnc5ccc(-c6cnc7ccccc7c6)cc5c43)cc2C(F)(F)F)CC1`, in test [2], the % of control is 100%.

For `CNC(=O)Nc1ccc(-c2nc(N3CC4CCC(C3)O4)c3cnn(C4CCC5(CC4)OCCO5)c3n2)cc1`, the results for the % of control in test [3] and in test [4] were 80% and 100%, respectively.
